For this assay, the system named is C57BL/6J mice. Briefly: prepulse inhibition (PPI) of the acoustic startle reflex, animal model for schizophrenia. Format: in vivo. The conditions noted are these: 30 min prior to testing, n=12. As to the method:
Some anti-epileptic drugs have proven pre-clinical and/or clinical efficacy as add-on therapy for schizophrenia. SPM 927 was tested in a simple animal model with predictive validity for schizophrenia (i.e. prepulse inhibition (PPI) of the acoustic startle reflex). SPM 927 was tested alone and in combination with the atypical antipsychotic drug clozapine.
The acoustic startle is an unconditioned reflex response to an external auditory stimulation. PPI refers to the reduction in the startle response caused by the presentation of a low-intensity auditory stimulus prior to the startle stimulus. The PPI paradigm is the choice for the study of schizophrenia and antipsychotic action due to the similarities between the results from human and rodent studies. Antipsychotic drugs, such as clozapine, result in a dose-dependent increase in PPI in mice. Thus, an increase of PPI in normal mice may be indicative of antipsychotic efficacy.
C57BL/6J mice obtained from the Jackson Laboratory, Bar Harbor, Maine were received at the age of 6 weeks and were assigned unique identification numbers (tail marked). Animals were housed 4 per cage in polycarbonate cages with filter tops and acclimated for 7 days. All animals were examined, handled, and weighed prior to initiation of the study to assure adequate health and suitability and to minimize non-specific stress associated with manipulation.
During the course of the study, 12/12 light/dark cycles and a room temperature of 20 to 23°C were maintained with a relative humidity maintained around 50%. Chow and water were provided ad libitum for the duration of the study. Each mouse was randomly assigned across the treatment groups and balanced by cage numbers. The test was performed during the animal's light cycle phase. Twelve animals were used in each treatment group.
SPM 927 was dissolved in Saline (0.9% NaCl in sterile H2O). Clozapine was dissolved in 1 % Tween 80 in sterile H2O at a final pH of 6.0. All compounds were administered intraperitoneal (ip) (volume injection: 10 ml/kg). SPM 927 was administered at doses of 1, 10 and 30 mg/kg and Clozapine at a dose of 3 mg/kg. Doses are expressed as mg of salt. Control mice were administered saline (vehicle 1, VEH 1) or 1% Tween 80 (vehicle 2, VEH 2) at a pH of 6.0. The drug treatments were balanced across days and the animals only used once. All tests were conducted blind. All compounds were administered 30 mins prior to testing.
Animals were placed in the PPI chambers (Med Associates) for a 5 min session of white noise (70 dB) habituation. After the acclimation period the test session was automatically started. The session started with an habituation block of 6 presentations of the startle stimulus alone, followed by 10 PPI blocks of 6 different types of trials. Trial types are: null (no stimuli), startle (120 dB), startle plus prepulse (4, 8 and 12 dB over background noise i.e. 74, 78 or 82 dB) and prepulse alone (82 dB). Trial types were presented at random within each block. Each trial started with a 50 ms null period during which baseline movements are recorded. There was a subsequent 20 ms period during which prepulse stimuli were presented and responses to the prepulse measured. After further 100 ms the startle stimuli were presented for 40 ms and responses recorded for 100 ms from startle onset. Responses were sampled every ms. The inter-trial interval was variable with an average of 15 s (range from 10 to 20 s). In startle alone trials the basic auditory startle is measured and in prepulse plus startle trials the amount of inhibition of the normal startle is determined and expressed as a percentage of the basic startle response (from startle alone trials), excluding the startle response of the first habituation block. Eight animals were tested at one time.
Twelve animals were tested in each group. […]

Take `CN1CCN(C2=Nc3cc(Cl)ccc3Nc3ccccc32)CC1` [CLOZ, clozapine, reference compound]: the “Mean PPI” value (VEH 1 / clozapine 3 mg/kg ip, PPI expressed as percentage of basic startle response) was determined as 45±2.
Turning to `COC[C@@H](NC(C)=O)C(=O)NCc1ccccc1` [SPM 927, (R)-2-acetamide-N-benzyl-3-methoxypropionamide], the “Mean PPI” value is reported as 29±3 (SPM 927 3 mg/kg ip / VEH 2 (alone)); 43±2 (SPM 927 3 mg/kg ip in combination with clozapine 3 mg/kg ip); 34±3 (SPM 927 10 mg/kg ip / VEH 2 (alone)); 45±2 (SPM 927 10 mg/kg ip in combination with clozapine 3 mg/kg ip); 27±2 (SPM 927 30 mg/kg ip / VEH 2 (alone)); 57±5 (SPM 927 30 mg/kg ip in combination with clozapine 3 mg/kg ip).

Source of the values: patent EP1688137A1, “SPM 927 for add-on therapy of schizophrenia” (SCHWARZ PHARMA AG, priority 2005, dated 2006).
